Structures can show the parent of a compound that is named as a salt.
Tested on: behaviors of compound-treated mice
Test: Neuropharmacological Assay (SmartCube)
Assay type: in vivo
Conditions: for minimal effective dose: Mus musculus, ip, 0.25 h, dose having 50% or more total activity in SmartCube, i.p., read-out: MED (minimal effective dose); for AD: ADHD (probability that activity matches class) / AG: analgesic (probability that activity matches class) / AX: anxiolytic (probability that activity matches class) / CE: cognitive enhancer (probability that activity matches class) / DP: anti-depressant (probability that activity matches class) / MS: mood stabilizer (probability that activity matches class) / PS: anti-psychotic (probability that activity matches class) / SD: sedative hypnotic (probability that activity matches class) / UN: uncharacterized CNS activity (probability that activity matches class): i.p. 15 min before behavioral test, most efficacious dose(s) of 3 doses
Summary of the method: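 Mice dosed i.p. 15 min before testing, with compound in N-methyl-2-pyrrolidone/PEG/propylene glycol, were video-recorded and algorithmically compared with reference-drug behavioral signatures. This gave class-match probabilities (antidepressant, anxiolytic, etc.) at the most efficacious of 3 doses. MED was defined as the dose with ≥50% total activity, usually tested across 0.3–30 mpk.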

| SMILES | minimal effective dose [mg/kg] | AD: ADHD (probability that activity matches class) | AG: analgesic (probability that activity matches class) | AX: anxiolytic (probability that activity matches class) | CE: cognitive enhancer (probability that activity matches class) | DP: anti-depressant (probability that activity matches class) | MS: mood stabilizer (probability that activity matches class) | PS: anti-psychotic (probability that activity matches class) | SD: sedative hypnotic (probability that activity matches class) | UN: uncharacterized CNS activity (probability that activity matches class) |
| --- | --- | --- | --- | --- | --- | --- | --- | --- | --- | --- |
| NC[C@H]1OCCc2c(-c3ccccc3)cccc21 (single isomer, unassigned) [Compound 131, hydrochloride salt] | ≤ 3 | + (LOQ ≤ + <5%) | + (LOQ ≤ + <5%) | ++ (5% ≤ ++ <25%) | + (LOQ ≤ + <5%) | ++++ (50% ≤ ++++) | + (LOQ ≤ + <5%) | + (LOQ ≤ + <5%) | + (LOQ ≤ + <5%) | ++ (5% ≤ ++ <25%) |
| CNC[C@@H]1OCCCc2c(-c3ccncc3)cccc21 (single isomer, unassigned) [Compound 148] | 10 to 30 | + (LOQ ≤ + <5%) | + (LOQ ≤ + <5%) | ++ (5% ≤ ++ <25%) | + (LOQ ≤ + <5%) | + (LOQ ≤ + <5%) | + (LOQ ≤ + <5%) | + (LOQ ≤ + <5%) | + (LOQ ≤ + <5%) | + (LOQ ≤ + <5%) |
| CNC[C@H]1OCCCc2c(-c3ccncc3)cccc21 (single isomer, unassigned) [Compound 149] | ≤ 3 | ++ (5% ≤ ++ <25%) | + (LOQ ≤ + <5%) | ++ (5% ≤ ++ <25%) | + (LOQ ≤ + <5%) | ++++ (50% ≤ ++++) | + (LOQ ≤ + <5%) | + (LOQ ≤ + <5%) | + (LOQ ≤ + <5%) | ++ (5% ≤ ++ <25%) |
| NC[C@@H]1OCCCc2c(-c3ccncc3)cccc21 (single isomer, unassigned) [Compound 150] | 10 to 30 | + (LOQ ≤ + <5%) | + (LOQ ≤ + <5%) | ++ (5% ≤ ++ <25%) | + (LOQ ≤ + <5%) | ++ (5% ≤ ++ <25%) | + (LOQ ≤ + <5%) | + (LOQ ≤ + <5%) | + (LOQ ≤ + <5%) | + (LOQ ≤ + <5%) |
| NC[C@H]1OCCCc2c(-c3ccncc3)cccc21 (single isomer, unassigned) [Compound 151] | 3 to 10 | + (LOQ ≤ + <5%) | + (LOQ ≤ + <5%) | ++ (5% ≤ ++ <25%) | + (LOQ ≤ + <5%) | ++++ (50% ≤ ++++) | + (LOQ ≤ + <5%) | + (LOQ ≤ + <5%) | + (LOQ ≤ + <5%) | + (LOQ ≤ + <5%) |
| CNC[C@@H]1OCCCc2c(-c3ccccn3)cccc21 (single isomer, unassigned) [Compound 156, hydrochloride salt] | 10 to 30 | + (LOQ ≤ + <5%) | + (LOQ ≤ + <5%) | + (LOQ ≤ + <5%) | + (LOQ ≤ + <5%) | + (LOQ ≤ + <5%) | + (LOQ ≤ + <5%) | + (LOQ ≤ + <5%) | + (LOQ ≤ + <5%) | + (LOQ ≤ + <5%) |
| CNC[C@H]1OCCCc2c(-c3ccccn3)cccc21 (single isomer, unassigned) [Compound 157, hydrochloride salt] | 10 to 30 | + (LOQ ≤ + <5%) | + (LOQ ≤ + <5%) | ++ (5% ≤ ++ <25%) | + (LOQ ≤ + <5%) | + (LOQ ≤ + <5%) | + (LOQ ≤ + <5%) | + (LOQ ≤ + <5%) | + (LOQ ≤ + <5%) | + (LOQ ≤ + <5%) |
| CNC[C@@H]1OCCCc2c(-c3ccncn3)cccc21 (single isomer, unassigned) [Compound 164, hydrochloride salt] | 10 to 30 | + (LOQ ≤ + <5%) | + (LOQ ≤ + <5%) | + (LOQ ≤ + <5%) | + (LOQ ≤ + <5%) | + (LOQ ≤ + <5%) | + (LOQ ≤ + <5%) | + (LOQ ≤ + <5%) | + (LOQ ≤ + <5%) | + (LOQ ≤ + <5%) |
| CNC[C@H]1OCCCc2c(-c3ccncn3)cccc21 (single isomer, unassigned) [Compound 165, hydrochloride salt] | 10 to 30 | + (LOQ ≤ + <5%) | + (LOQ ≤ + <5%) | + (LOQ ≤ + <5%) | + (LOQ ≤ + <5%) | ++ (5% ≤ ++ <25%) | + (LOQ ≤ + <5%) | + (LOQ ≤ + <5%) | + (LOQ ≤ + <5%) | + (LOQ ≤ + <5%) |
| NC[C@@H]1OCCCc2c(-c3ccncn3)cccc21 (single isomer, unassigned) [Compound 166] | 10 to 30 | + (LOQ ≤ + <5%) | + (LOQ ≤ + <5%) | + (LOQ ≤ + <5%) | + (LOQ ≤ + <5%) | + (LOQ ≤ + <5%) | + (LOQ ≤ + <5%) | + (LOQ ≤ + <5%) | + (LOQ ≤ + <5%) | + (LOQ ≤ + <5%) |
| NC[C@H]1OCCCc2c(-c3ccncn3)cccc21 (single isomer, unassigned) [Compound 167] | 10 to 30 | + (LOQ ≤ + <5%) | + (LOQ ≤ + <5%) | + (LOQ ≤ + <5%) | + (LOQ ≤ + <5%) | + (LOQ ≤ + <5%) | + (LOQ ≤ + <5%) | + (LOQ ≤ + <5%) | + (LOQ ≤ + <5%) | + (LOQ ≤ + <5%) |

From patent publication US10780074B2, “Compounds and uses thereof” (Sunovion Pharmaceuticals Inc., priority 2017, dated 2020)
